Data taken from ChEMBL document CHEMBL4152250, “Antibacterial and anti-TB tat-peptidomimetics with improved efficacy and half-life” (Eur J Med Chem, 2018).
In brackets after ≈: the same amount, converted by molar mass. Numbered stars: 1 amine (or outer) side, 2 acyl side, 3 side chain; on linkers, the order of the positions; unused ones are H or OH. Square brackets hold non-standard residues; d marks the D form. Peptide text beside a SMILES is read from it. Pro(cis-4-guanidino) = NC(N)=N[C@@H]1CN[C@H](C(=O)O)C1; X1 = NCCCN1C[C@@H](N[*:1])C[C@H]1C(=O)[*:2]; Ethylenediamine = C(CN[*:2])N[*:1]; βAla = NCCC(=O)O

Key:
Bacillus subtilis = assay: Antibacterial activity against Bacillus subtilis NCIM 2079 after 12 hrs by serial dilution method; type: functional, organism-based; conditions: NCIM 2079, 12 h
[1] = system: Mycobacterium tuberculosis; assay: Antitubercular activity against active stage of Mycobacterium tuberculosis H37Ra ATCC 25177 after 8 days by XRMA; type: functional, organism-based; conditions: H37Ra ATCC 25177, 192 h
[2] = Cytotoxicity against human HeLa cells assessed as cell viability at 1 to 10 uM after 24 hrs by MTT assay relative to control; type: cell-based; conditions: read-out: Activity
Escherichia coli = assay: Antibacterial activity against Escherichia coli NCIM 2688 after 8 hrs by serial dilution method; type: functional, organism-based; conditions: NCIM 2688, 8 h
[3] = system: Mycobacterium tuberculosis; assay: Antitubercular activity against dormant stage of Mycobacterium tuberculosis H37Ra ATCC 25177 after 12 days by XRMA; type: functional, organism-based; conditions: H37Ra ATCC 25177, 288 h
Staphylococcus aureus = assay: Antibacterial activity against Staphylococcus aureus NCIM 2010 after 12 hrs by serial dilution method; type: functional, organism-based; conditions: NCIM 2010, 12 h
Pseudomonas aeruginosa = assay: Antibacterial activity against Pseudomonas aeruginosa NCIM 2036 after 8 hrs by serial dilution method; type: functional, organism-based; conditions: NCIM 2036, 8 h
[4] = system: Staphylococcus epidermidis; assay: Antibacterial activity against Staphylococcus epidermidis NCIM 5270 after 12 hrs by serial dilution method; type: functional, organism-based; conditions: NCIM 5270, 12 h
Enterobacter sp. = assay: Antibacterial activity against Enterobacter sp. NCIM 5392 after 8 hrs by serial dilution method; type: functional, organism-based; conditions: NCIM 5392, 8 h

Structure (SMILES): CC(=O)N[C@@H](Cc1ccccc1)C(=O)NCC(=O)N1C[C@@H](NC(=N)N)C[C@H]1C(=O)N[C@@H](CCCCN)C(=O)N[C@@H](CCCCN)C(=O)N[C@@H](CCCNC(=N)N)C(=O)N1C[C@@H](NC(=N)N)C[C@H]1C(=O)N[C@@H](CCC(N)=O)C(=O)N1C[C@@H](NC(=N)N)C[C@H]1C(=O)N[C@@H](CCCNC(=N)N)C(=O)N1C[C@@H](NC(=N)N)C[C@H]1C(=O)NCCC(N)=O (Ac-FG[Pro(cis-4-guanidino)]KKR[Pro(cis-4-guanidino)]Q[Pro(cis-4-guanidino)]R[Pro(cis-4-guanidino)][βAla]-NH2)
- IC50 (Bacillus subtilis): 143 nM
- MIC (Bacillus subtilis): 15.1 µM (≈ 24.9 µg/mL)
- IC50 [1]: 7440 nM
- MIC [1]: 53.9 µM (≈ 88.8 µg/mL)
- viability at 24 h, up to 10 µM [2]: ≥ 80%
- IC50 (Escherichia coli): 223 nM
- MIC (Escherichia coli): 27.7 µM (≈ 45.7 µg/mL)
- IC50 [3]: 1910 nM
- MIC [3]: 29.4 µM (≈ 48.4 µg/mL)
- IC50 (Staphylococcus aureus): 92 nM
- MIC (Staphylococcus aureus): 5.59 µM (≈ 9.21 µg/mL)
- IC50 (Pseudomonas aeruginosa): 63 nM
- MIC (Pseudomonas aeruginosa): 26 µM (≈ 42.8 µg/mL)

Structure (SMILES): CC(=O)N[C@@H](Cc1ccccc1)C(=O)NCC(=O)N[C@H]1C[C@@H](C(=O)N[C@@H](CCCCN)C(=O)N[C@@H](CCCCN)C(=O)N[C@@H](CCCNC(=N)N)C(=O)N[C@H]2C[C@@H](C(=O)N[C@@H](CCC(N)=O)C(=O)N[C@@H](CCCNC(=N)N)C(=O)N[C@@H](CCCNC(=N)N)C(=O)N[C@H]3C[C@@H](C(=O)NCCC(N)=O)N(CCCN)C3)N(CCCN)C2)N(CCCN)C1 (Ac-FG[X1]KKR[X1]QRR[X1][βAla]-NH2)
- IC50 (Bacillus subtilis): 12.4 nM
- MIC (Bacillus subtilis): 4.16 µM (≈ 7.05 µg/mL)
- IC50 [4]: 33 nM
- MIC [4]: 7.25 µM (≈ 12.3 µg/mL)
- IC50 [1]: 4500 nM
- MIC [1]: 43 µM (≈ 72.9 µg/mL)
- viability at 24 h, up to 10 µM [2]: ≥ 80%
- IC50 (Enterobacter sp.): 12.4 nM
- MIC (Enterobacter sp.): 4.65 µM (≈ 7.88 µg/mL)
- IC50 (Escherichia coli): 16.5 nM
- MIC (Escherichia coli): 3.52 µM (≈ 5.97 µg/mL)
- IC50 [3]: 2240 nM
- MIC [3]: 26.3 µM (≈ 44.6 µg/mL)
- IC50 (Staphylococcus aureus): 10.6 nM
- MIC (Staphylococcus aureus): 3.02 µM (≈ 5.12 µg/mL)
- IC50 (Pseudomonas aeruginosa): 8.2 nM
- MIC (Pseudomonas aeruginosa): 2.32 µM (≈ 3.93 µg/mL)

Structure (SMILES): CC(=O)N[C@@H](Cc1ccccc1)C(=O)NCC(=O)N[C@H]1C[C@@H](C(=O)N[C@@H](CCCCN)C(=O)N[C@@H](CCCCN)C(=O)N[C@@H](CCCNC(=N)N)C(=O)N[C@H]2C[C@@H](C(=O)N[C@@H](CCC(N)=O)C(=O)N[C@H]3C[C@@H](C(=O)N[C@@H](CCCNC(=N)N)C(=O)N[C@H]4C[C@@H](C(=O)NCCN)N(CCCN)C4)N(CCCN)C3)N(CCCN)C2)N(CCCN)C1 (Ac-FG[X1]KKR[X1]Q[X1]R[X1]-Ethylenediamine)
- IC50 (Bacillus subtilis): 5.8 nM
- MIC (Bacillus subtilis): 3.79 µM (≈ 6.37 µg/mL)
- IC50 [4]: 7 nM
- MIC [4]: 3.94 µM (≈ 6.62 µg/mL)
- IC50 [1]: 4920 nM
- MIC [1]: 34.4 µM (≈ 57.8 µg/mL)
- viability at 24 h, up to 10 µM [2]: ≥ 80%
- IC50 (Enterobacter sp.): 11 nM
- MIC (Enterobacter sp.): 4.51 µM (≈ 7.58 µg/mL)
- IC50 (Escherichia coli): 7 nM
- MIC (Escherichia coli): 2.34 µM (≈ 3.93 µg/mL)
- IC50 [3]: 1420 nM
- MIC [3]: 18.3 µM (≈ 30.7 µg/mL)
- IC50 (Staphylococcus aureus): 13.4 nM
- MIC (Staphylococcus aureus): 3.02 µM (≈ 5.07 µg/mL)
- IC50 (Pseudomonas aeruginosa): 7 nM
- MIC (Pseudomonas aeruginosa): 2.2 µM (≈ 3.7 µg/mL)

Structure (SMILES): CC1(C)S[C@@H]2[C@H](NC(=O)[C@H](N)c3ccccc3)C(=O)N2[C@H]1C(=O)O [AMPICILLIN]
- IC50 (Bacillus subtilis): 1000 nM
- MIC (Bacillus subtilis): 29.5 µM (≈ 10.3 µg/mL)
- IC50 (Escherichia coli): 146 nM
- MIC (Escherichia coli): 4.17 µM (≈ 1.46 µg/mL)
- IC50 (Staphylococcus aureus): 100 nM
- MIC (Staphylococcus aureus): 2.8 µM (≈ 0.978 µg/mL)
- IC50 (Pseudomonas aeruginosa): 436 nM
- MIC (Pseudomonas aeruginosa): 12.5 µM (≈ 4.37 µg/mL)

Structure (SMILES): NC[C@H]1O[C@H](O[C@H]2[C@H](O)[C@@H](O[C@H]3O[C@H](CO)[C@@H](O)[C@H](N)[C@H]3O)[C@H](N)C[C@@H]2N)[C@H](O)[C@@H](O)[C@@H]1O [KANAMYCIN]
- IC50 (Bacillus subtilis): 135 nM
- MIC (Bacillus subtilis): 2.8 µM (≈ 1.36 µg/mL)
- IC50 (Escherichia coli): 162 nM
- MIC (Escherichia coli): 3.3 µM (≈ 1.6 µg/mL)
- IC50 (Staphylococcus aureus): 300 nM
- MIC (Staphylococcus aureus): > 61.9 µM
- IC50 (Pseudomonas aeruginosa): 49 nM
- MIC (Pseudomonas aeruginosa): 1.01 µM (≈ 0.489 µg/mL)

Structure (SMILES): NC(=O)c1cnccn1 [PYRAZINAMIDE]
- MIC [1]: > 100 µM
- MIC [3]: > 100 µM

Structure (SMILES): CO[C@H]1/C=C/O[C@@]2(C)Oc3c(C)c(O)c4c(O)c(c(/C=N/N5CCN(C)CC5)c(O)c4c3C2=O)NC(=O)/C(C)=C\C=C\[C@H](C)[C@H](O)[C@@H](C)[C@@H](O)[C@@H](C)[C@H](OC(C)=O)[C@@H]1C [RIFAMPIN]
- MIC [1]: 0.97 µM (≈ 0.798 µg/mL)
- MIC [3]: 0.91 µM (≈ 0.749 µg/mL)
